Results from ChEMBL document CHEMBL3822383, “Coumarin sulfonamides derivatives as potent and selective COX-2 inhibitors with efficacy in suppressing cancer proliferation and metastasis” (Bioorg Med Chem Lett, 2016).
Activity calls are given as the source filed them. The rule behind the calls is not given here.

Columns and labels:
HeLa [1] = test: Induction of apoptosis in human HeLa cells assessed as necrotic cells at 4 uM after 24 hrs by Annexin V/propidium iodide based flow cytometric analysis (reference value: 0.441 %); format: functional
HeLa [2] = test: Induction of apoptosis in human HeLa cells assessed as early apoptotic cells at 8 uM after 24 hrs by Annexin V/propidium iodide based flow cytometric analysis (reference value: 0.902 %); format: functional
[3] = molecular target: Prostaglandin G/H synthase 1 (Homo sapiens, UniProt P23219); test: Inhibition of human COX1 using arachidonic acid assessed as production of PGF2alpha after 5 mins by ELISA
HeLa [4] = test: Induction of apoptosis in human HeLa cells assessed as viable cells at 1 uM after 24 hrs by Annexin V/propidium iodide based flow cytometric analysis (reference value: 95.5 %); format: functional; settings: read-out: Activity
HeLa [5] = test: Induction of apoptosis in human HeLa cells assessed as early apoptotic cells at 1 uM after 24 hrs by Annexin V/propidium iodide based flow cytometric analysis (reference value: 0.902 %); format: functional
HeLa [6] = test: Induction of apoptosis in human HeLa cells assessed as late apoptotic cells at 1 uM after 24 hrs by Annexin V/propidium iodide based flow cytometric analysis (reference value: 3.16 %); format: functional
HeLa [7] = test: Induction of apoptosis in human HeLa cells assessed as viable cells at 2 uM after 24 hrs by Annexin V/propidium iodide based flow cytometric analysis (reference value: 95.5 %); format: functional; settings: read-out: Activity
HeLa [8] = test: Induction of apoptosis in human HeLa cells assessed as necrotic cells at 1 uM after 24 hrs by Annexin V/propidium iodide based flow cytometric analysis (reference value: 0.441 %); format: functional
HeLa [9] = test: Induction of apoptosis in human HeLa cells assessed as early apoptotic cells at 2 uM after 24 hrs by Annexin V/propidium iodide based flow cytometric analysis (reference value: 0.902 %); format: functional
HeLa [10] = test: Induction of apoptosis in human HeLa cells assessed as late apoptotic cells at 2 uM after 24 hrs by Annexin V/propidium iodide based flow cytometric analysis (reference value: 3.16 %); format: functional
HeLa [11] = test: Induction of apoptosis in human HeLa cells assessed as necrotic cells at 2 uM after 24 hrs by Annexin V/propidium iodide based flow cytometric analysis (reference value: 0.441 %); format: functional
HeLa [12] = test: Induction of apoptosis in human HeLa cells assessed as viable cells at 4 uM after 24 hrs by Annexin V/propidium iodide based flow cytometric analysis (reference value: 95.5 %); format: functional; settings: read-out: Activity
HeLa [13] = test: Induction of apoptosis in human HeLa cells assessed as early apoptotic cells at 4 uM after 24 hrs by Annexin V/propidium iodide based flow cytometric analysis (reference value: 0.902 %); format: functional
HeLa [14] = test: Induction of apoptosis in human HeLa cells assessed as late apoptotic cells at 4 uM after 24 hrs by Annexin V/propidium iodide based flow cytometric analysis (reference value: 3.16 %); format: functional
HeLa [15] = test: Induction of apoptosis in human HeLa cells assessed as viable cells at 8 uM after 24 hrs by Annexin V/propidium iodide based flow cytometric analysis (reference value: 95.5 %); format: functional; settings: read-out: Activity
HeLa [16] = test: Induction of apoptosis in human HeLa cells assessed as late apoptotic cells at 8 uM after 24 hrs by Annexin V/propidium iodide based flow cytometric analysis (reference value: 3.16 %); format: functional
HeLa [17] = test: Induction of apoptosis in human HeLa cells assessed as necrotic cells at 8 uM after 24 hrs by Annexin V/propidium iodide based flow cytometric analysis (reference value: 0.441 %); format: functional
HeLa [18] = test: Induction of apoptosis in human HeLa cells assessed as viable cells at 3 uM after 12 hrs by Annexin V/propidium iodide based flow cytometric analysis (reference value: 96 %); format: functional; settings: read-out: Activity
HeLa [19] = test: Induction of apoptosis in human HeLa cells assessed as early apoptotic cells at 3 uM after 12 hrs by Annexin V/propidium iodide based flow cytometric analysis (reference value: 1.61 %); format: functional
HeLa [20] = test: Induction of apoptosis in human HeLa cells assessed as late apoptotic cells at 3 uM after 12 hrs by Annexin V/propidium iodide based flow cytometric analysis (reference value: 2.21 %); format: functional
HeLa [21] = test: Induction of apoptosis in human HeLa cells assessed as necrotic cells at 3 uM after 12 hrs by Annexin V/propidium iodide based flow cytometric analysis (reference value: 0.441 %); format: functional
HeLa [22] = test: Induction of apoptosis in human HeLa cells assessed as necrotic cells at 3 uM after 12 hrs by Annexin V/propidium iodide based flow cytometric analysis (reference value: 0.207 %); format: functional
HeLa [23] = test: Induction of apoptosis in human HeLa cells assessed as early apoptotic cells at 3 uM after 24 hrs by Annexin V/propidium iodide based flow cytometric analysis (reference value: 1.61 %); format: functional
HeLa [24] = test: Induction of apoptosis in human HeLa cells assessed as late apoptotic cells at 3 uM after 24 hrs by Annexin V/propidium iodide based flow cytometric analysis (reference value: 2.21 %); format: functional
HeLa [25] = test: Induction of apoptosis in human HeLa cells assessed as viable cells at 3 uM after 24 hrs by Annexin V/propidium iodide based flow cytometric analysis (reference value: 96 %); format: functional; settings: read-out: Activity
HeLa [26] = test: Induction of apoptosis in human HeLa cells assessed as necrotic cells at 3 uM after 24 hrs by Annexin V/propidium iodide based flow cytometric analysis (reference value: 0.207 %); format: functional
HeLa [27] = test: Induction of apoptosis in human HeLa cells assessed as viable cells at 3 uM after 36 hrs by Annexin V/propidium iodide based flow cytometric analysis (reference value: 96 %); format: functional; settings: read-out: Activity
HeLa [28] = test: Induction of apoptosis in human HeLa cells assessed as early apoptotic cells at 3 uM after 36 hrs by Annexin V/propidium iodide based flow cytometric analysis (reference value: 1.61 %); format: functional
HeLa [29] = test: Induction of apoptosis in human HeLa cells assessed as late apoptotic cells at 3 uM after 36 hrs by Annexin V/propidium iodide based flow cytometric analysis (reference value: 2.21 %); format: functional
HeLa [30] = test: Induction of apoptosis in human HeLa cells assessed as necrotic cells at 3 uM after 36 hrs by Annexin V/propidium iodide based flow cytometric analysis (reference value: 0.207 %); format: functional
HeLa [31] = test: Inhibition of cell adhesion in human HeLa cells assessed as reduction in cell attachment at 2 uM after 1 hr by MTT assay; format: functional
HeLa [32] = test: Inhibition of cell adhesion in human HeLa cells assessed as reduction in cell attachment after 1 hr by MTT assay; format: functional, cell-based
HeLa [33] = test: Reduction in cell migration in human HeLa cells up to 4 uM by transwell migration assay; format: functional, cell-based
HeLa [34] = test: Reduction in cell invasion in human HeLa cells up to 4 uM by transwell invasion assay; format: functional, cell-based
HeLa [35] = test: Inhibition of PGE2 secretion in human HeLa cells at 0.1 uM after 24 hrs by EIA monoclonal assay; format: functional, cell-based
HeLa [36] = test: Antiproliferative activity in PGE2-induced human HeLa cells at 2 uM after 12 to 24 hrs by MTT assay; format: functional, cell-based
HeLa [37] = test: Induction of apoptosis in PGE2-induced human HeLa cells assessed as viable cells at 3 uM after 24 hrs by Annexin V/propidium iodide based flow cytometric analysis; format: functional, cell-based
HeLa [38] = test: Induction of apoptosis in PGE2-induced human HeLa cells assessed as early apoptotic cells at 3 uM after 24 hrs by Annexin V/propidium iodide based flow cytometric analysis; format: functional, cell-based
HeLa [39] = test: Induction of apoptosis in PGE2-induced human HeLa cells assessed as late apoptotic cells at 3 uM after 24 hrs by Annexin V/propidium iodide based flow cytometric analysis; format: functional, cell-based
HeLa [40] = test: Induction of apoptosis in PGE2-induced human HeLa cells assessed as necrotic cells at 3 uM after 24 hrs by Annexin V/propidium iodide based flow cytometric analysis; format: functional, cell-based
HeLa [41] = test: Reduction in cell migration in PGE2-induced human HeLa cells at 2 uM by transwell migration assay; format: functional, cell-based
HeLa [42] = test: Reduction in cell invasion in PGE2-induced human HeLa cells at 2 uM by transwell invasion assay; format: functional, cell-based
HeLa [43] = test: Inhibition of cell adhesion in PGE2-induced human HeLa cells assessed as reduction in cell attachment at 2 uM after 12 hrs by MTT assay; format: functional, cell-based
HeLa [44] = test: cells; settings: Homo sapiens, 24 h
Description: Antiproliferative activity against human HeLa cells after 24 hrs by MTT assay

HepG2 = test: cells; settings: Homo sapiens, HepG2, 24 h
Description: Antiproliferative activity against human HepG2 cells after 24 hrs by MTT assay

cells [45] = settings: Mus musculus, B16-F10, 24 h
Description: Antiproliferative activity against mouse B16F10 cells after 24 hrs by MTT assay

A549 = test: cells; settings: Homo sapiens, A549, 24 h
Description: Antiproliferative activity against human A549 cells after 24 hrs by MTT assay

cells [46] = settings: Homo sapiens, HEK-293T, 24 h
Description: Antiproliferative activity against human 293T cells after 24 hrs by MTT assay

cells [47] = settings: Homo sapiens, L02, 24 h
Description: Antiproliferative activity against human LO2 cells after 24 hrs by MTT assay

Prostaglandin G/H synthase 1, sequence (P23219 whole entry): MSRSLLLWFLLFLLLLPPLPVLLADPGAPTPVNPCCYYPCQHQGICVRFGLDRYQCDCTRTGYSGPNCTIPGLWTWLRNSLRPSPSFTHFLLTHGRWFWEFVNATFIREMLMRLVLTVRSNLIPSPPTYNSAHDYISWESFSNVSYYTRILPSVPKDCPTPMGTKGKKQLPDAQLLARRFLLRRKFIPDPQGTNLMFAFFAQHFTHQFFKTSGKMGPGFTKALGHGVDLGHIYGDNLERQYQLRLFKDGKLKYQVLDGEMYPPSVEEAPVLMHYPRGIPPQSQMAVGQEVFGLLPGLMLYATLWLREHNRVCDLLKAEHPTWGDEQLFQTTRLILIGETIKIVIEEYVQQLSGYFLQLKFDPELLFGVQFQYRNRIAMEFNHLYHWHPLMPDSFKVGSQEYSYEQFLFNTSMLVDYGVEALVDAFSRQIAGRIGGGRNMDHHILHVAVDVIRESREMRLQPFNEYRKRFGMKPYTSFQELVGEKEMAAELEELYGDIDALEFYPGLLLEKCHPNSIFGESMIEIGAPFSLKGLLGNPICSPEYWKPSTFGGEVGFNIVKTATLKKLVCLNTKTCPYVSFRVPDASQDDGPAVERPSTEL

NS(=O)(=O)c1ccc(-n2nc(C(=O)N/N=C/c3c(Cl)c4ccccc4oc3=O)cc2-c2ccc(C(F)(F)F)cc2)cc1
Activity (HeLa [1]): 2.14%
Activity (HeLa [2]): 33.6%
IC50 [3]: 48200 nM
viability at 1 µM (HeLa [4]): 94%
Activity (HeLa [5]): 2.12%
Activity (HeLa [6]): 3.58%
viability at 2 µM (HeLa [7]): 85.9%
Activity (HeLa [8]): 0.301%
Activity (HeLa [9]): 7.64%
Activity (HeLa [10]): 6.29%
Activity (HeLa [11]): 0.143%
viability at 4 µM (HeLa [12]): 62%
Activity (HeLa [13]): 24.8%
Activity (HeLa [14]): 11%
viability at 8 µM (HeLa [15]): 49%
Activity (HeLa [16]): 15.6%
Activity (HeLa [17]): 1.82%
viability at 3 µM (HeLa [18]): 92.9%
Activity (HeLa [19]): 3.79%
Activity (HeLa [20]): 3.02%
Activity (HeLa [21]): 0.276%
Activity (HeLa [22]): 0.276%
Activity (HeLa [23]): 14.8%
Activity (HeLa [24]): 8.83%
viability at 3 µM (HeLa [25]): 76.3%
Activity (HeLa [26]): 0.049%
viability at 3 µM (HeLa [27]): 66.6%
Activity (HeLa [28]): 21.6%
Activity (HeLa [29]): 10.2%
Activity (HeLa [30]): 1.62%
inhibition at 2 µM (HeLa [31]): 60%
inhibition (HeLa [32]): Dose-dependent effect
Activity (HeLa [33]): Dose-dependent effect
Activity (HeLa [34]): Active
inhibition (HeLa [35]): Active
Activity (HeLa [36]): Active
Activity (HeLa [37]): Active
Activity (HeLa [38]): Active
Activity (HeLa [39]): Active
Activity (HeLa [40]): Active
Activity (HeLa [41]): Active
Activity (HeLa [42]): Active
inhibition (HeLa [43]): Active
IC50 (HeLa [44]): 360 nM
IC50 (HepG2): 850 nM
IC50 (cells [45]): 2270 nM
IC50 (A549): 2560 nM
IC50 (cells [46]): 234000 nM
IC50 (cells [47]): 267000 nM
